Experimental data from ChEMBL document CHEMBL3885861, “Open TG-GATES”.

Species: Rattus norvegicus
Assay: Open TG-GATES - Regimen: Single
Format: toxicity, organism-based, Sprague-Dawley
Design: regimen Single, gender Male, age 6 weeks
Conditions: in vivo, iv, 12 mg/kg, route intravenous injection, dose level Low; for APTT / Bas / Eos / Fbg / Hb / Ht / Lym / MCH / MCHC / MCV / Mono / Neu / PT / Plat / RBC / Ret / WBC: tissue Blood; for KIDNEY_L / KIDNEY_R / KIDNEY_TOTAL: tissue Kidney; for LIVER: tissue Liver; for A/G / ALP / ALT / AST / BUN / CRE / Ca / Cl / DBIL / GLC / IP / K / LDH / Na / PL / RALB / TBIL / TC / TG / TP / gamma-GTP: tissue Plasma

CN(C)c1ncnc2c1ncn2[C@@H]1O[C@H](CO)[C@@H](N)[C@H]1O [PUROMYCIN AMINONUCLEOSIDE]
TERMINAL_BW (3 h): 215.3 g
APTT (3 h): 22.9 s
Bas (3 h): 0%
Eos (3 h): 0.8%
Fbg (3 h): 276 mg/dL
Hb (3 h): 13.1 g/dL
Ht (3 h): 38.5%
Lym (3 h): 69.6%
MCH (3 h): 21.4 pg
MCHC (3 h): 33.9%
MCV (3 h): 63.1 fL
Mono (3 h): 4%
Neu (3 h): 24.4%
PT (3 h): 16 s
Plat (3 h): 119.9 x10_4/uL
RBC (3 h): 611.4 x10_4/ul
Ret (3 h): 6.4%
WBC (3 h): 112.8 x10_2/uL
KIDNEY_L (3 h): 1 g
KIDNEY_R (3 h): 1 g
KIDNEY_TOTAL (3 h): 1.9 g
LIVER (3 h): 10 g
A/G (3 h): 1.3
ALP (3 h): 1670.4 IU/L
ALT (3 h): 45.2 IU/L
AST (3 h): 76.6 IU/L
BUN (3 h): 13.6 mg/dL
CRE (3 h): 0.2 mg/dL
Ca (3 h): 11 mg/dL
Cl (3 h): 105.6 meq/L
DBIL (3 h): 0 mg/dL
GLC (3 h): 181.6 mg/dL
IP (3 h): 7.8 mg/dL
K (3 h): 4.2 meq/L
LDH (3 h): 180.2 IU/L
Na (3 h): 141.4 meq/L
PL (3 h): 143.4 mg/dL
RALB (3 h): 3 g/dL
TBIL (3 h): 0.02 mg/dL
TC (3 h): 73.2 mg/dL
TG (3 h): 72.4 mg/dL
TP (3 h): 5.4 g/dL
gamma-GTP (3 h): 1 IU/L
TERMINAL_BW (6 h): 208.1 g
APTT (6 h): 22.9 s
Bas (6 h): 0%
Eos (6 h): 0.8%
Fbg (6 h): 316.4 mg/dL
Hb (6 h): 13.1 g/dL
Ht (6 h): 39.2%
Lym (6 h): 72.8%
MCH (6 h): 20.5 pg
MCHC (6 h): 33.5%
MCV (6 h): 61 fL
Mono (6 h): 3.2%
Neu (6 h): 22.2%
PT (6 h): 15.9 s
Plat (6 h): 119.1 x10_4/uL
RBC (6 h): 643 x10_4/ul
Ret (6 h): 6.5%
WBC (6 h): 104.4 x10_2/uL
KIDNEY_L (6 h): 0.9 g
KIDNEY_R (6 h): 0.9 g
KIDNEY_TOTAL (6 h): 1.8 g
LIVER (6 h): 8.9 g
A/G (6 h): 1.3
ALP (6 h): 1246 IU/L
ALT (6 h): 37.4 IU/L
AST (6 h): 71.2 IU/L
BUN (6 h): 11.6 mg/dL
CRE (6 h): 0.1 mg/dL
Ca (6 h): 11.1 mg/dL
Cl (6 h): 105.6 meq/L
DBIL (6 h): 0 mg/dL
GLC (6 h): 182.4 mg/dL
IP (6 h): 9 mg/dL
K (6 h): 4.3 meq/L
LDH (6 h): 153.4 IU/L
Na (6 h): 140.4 meq/L
PL (6 h): 136.8 mg/dL
RALB (6 h): 3 g/dL
TBIL (6 h): 0.026 mg/dL
TC (6 h): 71.4 mg/dL
TG (6 h): 83 mg/dL
TP (6 h): 5.5 g/dL
gamma-GTP (6 h): 1.2 IU/L
TERMINAL_BW (9 h): 212.5 g
APTT (9 h): 21.5 s
Bas (9 h): 0%
Eos (9 h): 1%
Fbg (9 h): 306.4 mg/dL
Hb (9 h): 12.5 g/dL
Ht (9 h): 37.4%
Lym (9 h): 75%
MCH (9 h): 20.6 pg
MCHC (9 h): 33.5%
MCV (9 h): 61.7 fL
Mono (9 h): 2.8%
Neu (9 h): 20.6%
PT (9 h): 16.2 s
Plat (9 h): 130.4 x10_4/uL
RBC (9 h): 607.8 x10_4/ul
Ret (9 h): 7.7%
WBC (9 h): 98.3 x10_2/uL
KIDNEY_L (9 h): 1 g
KIDNEY_R (9 h): 1 g
KIDNEY_TOTAL (9 h): 1.9 g
LIVER (9 h): 8.5 g
A/G (9 h): 1.3
ALP (9 h): 1182.4 IU/L
ALT (9 h): 35.4 IU/L
AST (9 h): 69.6 IU/L
BUN (9 h): 10.6 mg/dL
CRE (9 h): 0.2 mg/dL
Ca (9 h): 11.1 mg/dL
Cl (9 h): 105.4 meq/L
DBIL (9 h): 0 mg/dL
GLC (9 h): 174 mg/dL
IP (9 h): 9.9 mg/dL
K (9 h): 4.3 meq/L
LDH (9 h): 129.8 IU/L
Na (9 h): 141.6 meq/L
PL (9 h): 132.6 mg/dL
RALB (9 h): 3 g/dL
TBIL (9 h): 0.03 mg/dL
TC (9 h): 71.2 mg/dL
TG (9 h): 81.4 mg/dL
TP (9 h): 5.4 g/dL
gamma-GTP (9 h): 1.2 IU/L
TERMINAL_BW (24 h): 220.5 g
APTT (24 h): 21.8 s
Bas (24 h): 0%
Eos (24 h): 1%
Fbg (24 h): 309.4 mg/dL
Hb (24 h): 13 g/dL
Ht (24 h): 37.8%
Lym (24 h): 82%
MCH (24 h): 20.8 pg
MCHC (24 h): 34.4%
MCV (24 h): 60.5 fL
Mono (24 h): 2.6%
Neu (24 h): 13.6%
PT (24 h): 15.9 s
Plat (24 h): 114.8 x10_4/uL
RBC (24 h): 627.2 x10_4/ul
Ret (24 h): 6.2%
WBC (24 h): 91 x10_2/uL
KIDNEY_L (24 h): 1 g
KIDNEY_R (24 h): 1 g
KIDNEY_TOTAL (24 h): 2 g
LIVER (24 h): 9.9 g
A/G (24 h): 1.2
ALP (24 h): 1421.6 IU/L
ALT (24 h): 43 IU/L
AST (24 h): 72.2 IU/L
BUN (24 h): 17.8 mg/dL
CRE (24 h): 0.2 mg/dL
Ca (24 h): 11.1 mg/dL
Cl (24 h): 104.4 meq/L
DBIL (24 h): 0 mg/dL
GLC (24 h): 188.6 mg/dL
IP (24 h): 8.6 mg/dL
K (24 h): 4.3 meq/L
LDH (24 h): 156.6 IU/L
Na (24 h): 141.4 meq/L
PL (24 h): 153 mg/dL
RALB (24 h): 3.1 g/dL
TBIL (24 h): 0.018 mg/dL
TC (24 h): 75.8 mg/dL
TG (24 h): 119.4 mg/dL
TP (24 h): 5.5 g/dL
gamma-GTP (24 h): 1.2 IU/L
